Assay results reported in patent publication US9643964B2, “3-(2-aminopyrimidin-4-yl)-5-(3-hydroxypropynyl)-1H-pyrrolo[2,3-C]pyridine derivatives as NIK inhibitors for the treatment of cancer” (Janssen Pharmaceutica NV, priority 2013, dated 2017).

What was measured:
[1] = molecular target: T1, Recombinant Human NF-kappaB-Inducing Kinase (NIK/MAP3K14) (Homo sapiens, UniProt Q99558); experiment: Biological Assay A2: inhibition of auto-phosphorylation of recombinant human NIK/MAP3K14 (AlphaScreen); type: biochemical; details: auto-phosphorylation; averaged over all measurements on all batches; read-out: αscreen IC50
T1 sequence (Q99558 whole entry): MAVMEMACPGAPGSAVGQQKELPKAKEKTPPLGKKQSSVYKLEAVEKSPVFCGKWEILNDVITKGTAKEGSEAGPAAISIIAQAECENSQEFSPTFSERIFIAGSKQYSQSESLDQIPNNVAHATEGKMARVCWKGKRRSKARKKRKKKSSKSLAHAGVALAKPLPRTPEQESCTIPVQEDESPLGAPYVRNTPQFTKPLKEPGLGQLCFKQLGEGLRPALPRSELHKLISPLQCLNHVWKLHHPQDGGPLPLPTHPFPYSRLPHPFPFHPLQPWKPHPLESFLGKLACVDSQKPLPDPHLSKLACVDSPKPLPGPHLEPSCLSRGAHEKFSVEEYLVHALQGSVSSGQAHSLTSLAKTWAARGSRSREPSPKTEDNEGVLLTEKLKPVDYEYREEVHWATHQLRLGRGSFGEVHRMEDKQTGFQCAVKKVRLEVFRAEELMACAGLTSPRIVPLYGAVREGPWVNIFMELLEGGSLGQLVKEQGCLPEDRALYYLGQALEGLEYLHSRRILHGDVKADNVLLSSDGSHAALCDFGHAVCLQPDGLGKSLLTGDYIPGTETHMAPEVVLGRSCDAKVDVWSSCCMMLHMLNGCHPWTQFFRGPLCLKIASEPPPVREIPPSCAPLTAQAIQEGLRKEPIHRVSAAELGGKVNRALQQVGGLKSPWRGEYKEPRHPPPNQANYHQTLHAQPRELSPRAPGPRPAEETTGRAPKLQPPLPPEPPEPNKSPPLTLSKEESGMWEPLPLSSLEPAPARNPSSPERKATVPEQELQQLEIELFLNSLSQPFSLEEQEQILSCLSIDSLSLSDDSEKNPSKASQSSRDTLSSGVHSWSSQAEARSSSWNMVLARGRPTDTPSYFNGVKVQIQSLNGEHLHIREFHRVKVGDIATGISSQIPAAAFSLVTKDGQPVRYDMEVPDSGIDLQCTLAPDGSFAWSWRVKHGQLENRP
How it was run: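 AlphaScreen readout of anti-phospho-IKK Ser176/180 signal after 1 h, 25° C. incubation of 0.2 nM GST-NIK with compound and 25 microM ATP (Tris pH 7.5 buffer, MgCl2, 1% DMSO final). IC50 from sigmoidal fit of blank-corrected % inhibition against Log10 concentration.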

[2] = test system: P-IKKα levels in L363 cells; experiment: Biological Assay B: effect of compounds on P-IKKα levels in L363 cells; type: cell-based; details: Homo sapiens, L-363, averaged values, read-out: IKKα Cellular IC50
Protocol: Effect of Compounds on P-IKKα Levels in L363 Cells
All compounds tested were dissolved in DMSO and further dilutions were made in culture medium. Final DMSO concentration was 1% (v/v) in cell assays. The human L363 cells (ATCC) were cultured in RPMI 1640 medium supplemented with GlutaMax and 10% fetal calf serum (PAA). Cells were routinely maintained at densities of 0.2×10^6 cells per ml-1×10^6 cells per ml at 37° C. in a humidified 5% CO2 atmosphere. Cells were passaged twice a week splitting back to obtain the low density. Cells were seeded in 96 well plates (Nunc 167008) at 2×10^6 per ml media in a volume of 75 μl per well plus 25 μl 1 μg/ml recombinant human B-cell activating factor BAFF/B1YS/TNFSF13B. Seeded cells were incubated at 37° C. in a humidified 5% CO2 atmosphere for 24 hr. Drugs and/or solvents were added (20 μl) to a final volume of 120 μl. Following 2 hr treatment plates were removed from the incubator and cell lysis was achieved by the addition of 30 μl 5× lysis buffer followed by shaking on a plate shaker at 4° C. for 10 min. At the end of this incubation lysed cells were centrifuged at 800×g for 20 min at 4° C. and the lysate was assessed for P-IKKα levels by sandwich immuno-assay carried out in anti-rabbit antibody coated Mesoscale plates. Within an experiment, the results for each treatment were the mean of 2 replicate wells. For initial screening purposes, compounds were tested using an 8 point dilution curve (serial 1:3 dilutions). For each experiment, controls (containing MG132 and BAFF but no test drug) and a blank incubation (containing MG132 and BAFF and 10 μM ADS125117, a test concentration known to give full inhibition) were run in parallel. The blank incubation value was subtracted from all control and sample values. To determine the IC50 a sigmoidal curve was fitted to the plot of % inhibition of control P-IKKα levels versus Log10 compound concentration.

L-363 cells = experiment: Biological Assay C: antiproliferative activity on L-363 cells (CellTiter-Glo); type: cell-based, human; details: 72 hr treatment, averaged values
How it was run: (§1)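 Luminescent ATP signal (CellTiter-Glo) measures growth of myeloma cells following a 72 h compound treatment. Values for the time-zero blank are subtracted, and each mean of duplicate wells is given as percentage of the no-drug control.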

LP-1 cells = experiment: Biological Assay C: antiproliferative activity on LP-1 cells (CellTiter-Glo); type: cell-based, human; details: 72 hr treatment, averaged values
How it was run: as §1

JJN-3 cells = experiment: Biological Assay C: antiproliferative activity on JJN-3 cells (CellTiter-Glo); type: cell-based, human; details: 72 hr treatment, averaged values
How it was run: as §1

[3] = molecular target: T1, Recombinant Human NF-kappaB-Inducing Kinase (NIK/MAP3K14); experiment: Biological Assay A: inhibition of recombinant human NIK/MAP3K14 activity (MBP phosphorylation, Mesoscale); type: biochemical; details: averaged over all measurements on all batches; read-out: Biochemical (MSD MBP) IC50
Protocol: Inhibition of Recombinant Human NF-kappaB-Inducing Kinase (NIK/MAP3K14) Activity
Assay buffer was 50 mM Tris pH 7.5 containing 1 mM EGTA (ethylene glycol tetraacetic acid), 1 mM DTT (dithiothreitol), 0.1 mM Na3VO4, 5 mM MgCl2, 0.01% Tween 20. Assays were carried out in 384 well Mesoscale high binding plates which had been coated with myelin basic protein (MBP) and blocked with bovine serum albumin to prevent non-specific protein binding. All compounds tested were dissolved in dimethyl sulfoxide (DMSO) and further dilutions were made in assay buffer. Final DMSO concentration was 1% (v/v) in assays. Incubations consisted of compound (1% DMSO in control and blank wells), 25 μM Adenosine-5′-triphosphate (ATP), and 10 nM NIK/MAP3K14 substituting enzyme with buffer in the blank wells. Incubations were carried out for 1 h at 25° C. and were followed by washing and sequential incubation with rabbit anti-phospho-MBP and anti-rabbit Ig Sulfotag antibody before reading bound Sulfotag on a Mesoscale Discovery. Signal obtained in the wells containing blank samples was subtracted from all other wells and IC50's were determined by fitting a sigmoidal curve to % inhibition of control versus Log10 compound concentration.

SMILES	IC50 [1]	IC50 [2]	EC50 (L-363 cells)	EC50 (LP-1 cells)	EC50 (JJN-3 cells)	EC50 (L-363 cells; Homo sapiens, L-363, 72 h)	EC50 (LP-1 cells; Homo sapiens, LP-1, 72 h)	IC50 [3]	EC50 (JJN-3 cells; Homo sapiens, JJN-3, 72 h)
COCCCn1cc(-c2nc(N)ncc2F)c2cc(C#CC(C)(O)C3CC3)ncc21 (single isomer, unassigned) [Compound 120]	0.017 µM	0.02 µM	0.074 µM	0.2 µM	0.095 µM				
CC(O)(C#Cc1cc2c(-c3nc(N)ncc3F)cn(C3COC3)c2cn1)C1CC1 (single isomer, unassigned) [Compound 122]	0.026 µM	0.036 µM	0.069 µM	0.31 µM	0.1 µM				
CC(C)(O)C#Cc1cc2c(-c3ccnc(N)n3)c[nH]c2cn1 [Compound 1]	0.004 µM	0.093 µM				0.18 µM	3.2 µM	0.0069 µM	0.2 µM
COCCn1cc(-c2ccnc(N)n2)c2cc(C#CC(C)(C)O)ncc21 [Compound 2]	0.048 µM	0.082 µM				0.21 µM	1.9 µM	0.0097 µM	0.22 µM
CC(C)(O)C#Cc1cc2c(-c3ccnc(N)n3)cn(CC(C)(C)O)c2cn1 [Compound 3]	0.034 µM	0.075 µM				0.23 µM	11 µM	0.015 µM	0.5 µM
CNc1nccc(-c2c[nH]c3cnc(C#CC(C)(C)O)cc23)n1 [Compound 4]	0.021 µM	0.13 µM				0.4 µM	5.3 µM	0.046 µM	0.42 µM
Cn1cc(-c2ccnc(N)n2)c2cc(C#CC(C)(C)O)ncc21 [Compound 5]	0.008 µM	0.03 µM				0.094 µM	0.32 µM	0.0016 µM	0.16 µM
CC(C)(O)C#Cc1cc2c(-c3ccnc(N)n3)cn(CC3CCOC3)c2cn1 (centres unmarked) [Compound 6]	0.011 µM	0.068 µM				0.79 µM	3 µM	0.0023 µM	0.86 µM
CC(C)(O)C#Cc1cc2c(-c3ccnc(N)n3)cn(CCN3CCOCC3)c2cn1 [Compound 7]	0.21 µM	0.54 µM				1.9 µM	3.2 µM	0.015 µM	1.9 µM
CC(C)(O)C#Cc1cc2c(-c3nc(N)ncc3Cl)cn(CCO)c2cn1 [Compound 8]	0.001 µM	0.008 µM				0.25 µM	2.7 µM	0.0033 µM	0.094 µM
Nc1nccc(-c2c[nH]c3cnc(C#CC4(O)CC4)cc23)n1 [Compound 9]	0.002 µM	0.037 µM				0.12 µM	1.2 µM	0.0011 µM	0.074 µM
CC(O)C#Cc1cc2c(-c3ccnc(N)n3)cn(C(C)C)c2cn1 (centres unmarked) [Compound 10]	0.029 µM	0.1 µM				0.046 µM	0.23 µM	0.0092 µM	0.08 µM
CC(C)(O)C#Cc1cc2c(-c3ccnc(N)n3)cn(CCCN)c2cn1 [Compound 11]	0.027 µM	0.3 µM				0.13 µM	0.6 µM	0.008 µM	0.041 µM
CC(C)(O)C#Cc1cc2c(-c3ccnc(N)n3)cn(CCO)c2cn1 [Compound 12]	0.003 µM	0.15 µM				1.2 µM	12 µM	0.0074 µM	1.3 µM
CC(C)(O)C#Cc1cc2c(-c3nc(N)ncc3Cl)c[nH]c2cn1 [Compound 14]	0.0004 µM	0.011 µM				0.075 µM	0.39 µM	0.0009 µM	0.075 µM
CC(C)n1cc(-c2ccnc(N)n2)c2cc(C#CC(C)(C)O)ncc21 [Compound 15]	0.012 µM	0.016 µM				0.044 µM	0.37 µM	0.0048 µM	0.12 µM
CC(C)n1cc(-c2nc(N)ncc2Cl)c2cc(C#CC(C)(C)O)ncc21 [Compound 16]	0.002 µM	0.0073 µM				0.057 µM	0.092 µM	0.0043 µM	0.035 µM
CC(C)n1cc(-c2nc(N)ncc2Cl)c2cc(C#CC(C)(O)c3nccs3)ncc21 (centres unmarked) [Compound 17]	0.006 µM	0.017 µM				0.81 µM	8 µM	0.0049 µM	0.46 µM
CC(C)n1cc(-c2ccnc(N)n2)c2cc(C#CC3(O)CCCC3)ncc21 [Compound 18]	0.008 µM	0.047 µM				0.45 µM	1.5 µM	0.0037 µM	0.34 µM
CC(C)n1cc(-c2nc(N)ncc2Cl)c2cc(C#CC3(O)CCCC3)ncc21 [Compound 19]	0.016 µM	0.018 µM				0.43 µM	1.2 µM	0.0053 µM	0.16 µM
COCCn1cc(-c2nc(N)ncc2Cl)c2cc(C#CC(C)(O)c3nccs3)ncc21 (centres unmarked) [Compound 20]	0.015 µM	0.03 µM				5 µM	11 µM	0.0094 µM	1 µM
CC(C)(O)Cn1cc(-c2nc(N)ncc2Cl)c2cc(C#CC3(O)CC3)ncc21 [Compound 21]	0.003 µM	0.013 µM				0.074 µM	2.8 µM	0.018 µM	0.066 µM
CC(C)(O)Cn1cc(-c2ccnc(N)n2)c2cc(C#CC3(O)CC3)ncc21 [Compound 22]	0.009 µM	0.075 µM				0.19 µM	1.6 µM	0.02 µM	0.28 µM
CC(C)(O)Cn1cc(-c2nc(N)ncc2Cl)c2cc(C#CC(C)(O)c3nccs3)ncc21 (centres unmarked) [Compound 23]	0.009 µM	0.089 µM				9.9 µM	7.7 µM	0.03 µM	2.5 µM
COCCCn1cc(-c2nc(N)ncc2F)c2cc(C#CC(C)(C)O)ncc21 [Compound 76]	0.016 µM	0.012 µM				0.11 µM	0.3 µM		0.14 µM
CC(O)(C#Cc1cc2c(-c3nc(N)ncc3F)cn(C3COC3)c2cn1)C1CC1 (centres unmarked) [Compound 97]	0.021 µM	0.07 µM				0.1 µM	1.2 µM		0.17 µM
CC(O)(C#Cc1cc2c(-c3nc(N)ncc3F)cn(C3COC3)c2c(C2CC2)n1)C1CC1 (centres unmarked) [Compound 98]	0.22 µM	0.11 µM				0.042 µM	0.21 µM		0.078 µM
CN1CC(n2cc(-c3nc(N)ncc3F)c3cc(C#CC(C)(O)C4CC4)nc(C4CC4)c32)C1 (centres unmarked) [Compound 102]	0.9 µM	0.032 µM				0.021 µM	0.065 µM		0.035 µM
CN(C)C(=O)n1cc(-c2nc(N)ncc2F)c2cc(C#CC(C)(O)C3CC3)ncc21 (centres unmarked) [Compound 103]	0.013 µM	0.049 µM				0.048 µM	0.68 µM		0.091 µM
